This is an account of results in patent US11952584B2, “Functional peptides having antimicrobial activity against phytopathogenic microorganisms” (TOYOTA JIDOSHA KABUSHIKI KAISHA, priority 2019, dated 2024).

For assay [1], the system named is Botrytis cinerea. The class given is cell-based. To be noted: 25° C., 1 day or 2 days.
Assay [2] concerns Colletotrichum destructivum. The class given is cell-based. The note with it: 25° C., 1 day or 2 days.
In assay [3] the test system is Colletotrichum orbiculare. The class given is cell-based. To be noted: 25° C., 1 day or 2 days.
Another assay has as its system Fusarium oxysporum. The class given is cell-based.
The test system of the next assay is Pyricularia oryzae. It counts as cell-based. The note with it: 25° C., 1 day or 2 days.
In assay [4] the test system is Botrytis cinerea. Briefly: Botrytis cinerea leaf inoculation test (tomato leaf). It counts as in vivo. To be noted: peptide 100 μM; tomato leaf, 25° C., 2 days, lesions by visual inspection. The procedure:
In the present example, a suspension comprising Botrytis cinerea and a peptide to be tested was dropped on a plant leaf, and lesions were then observed by visual inspection to evaluate the antimicrobial activity of the tested peptide. First, the pores of Botrytis cinerea were suspended in a potato dextrose broth (PDB) to result in a spore concentration of 5×10^5 spores/ml, so as to prepare a PDB suspension spore solution. Subsequently, a peptide to be tested (TsORF18-2) was added to the PDB suspension spore solution, so that the final concentration of the peptide to be tested became 0 μM, 1 μM, 10 μM or 100 μM. It is to be noted that, as peptides to be tested, TsORF18 (full length) and TsORF18-40 a.a. were also used in the same manner as that of TsORF18-2. TsORF18 (full length) was dissolved in DMSO and was then used. On the other hand, TsORF18-2 and TsORF18-40 a.a were each dissolved in Milli-Q water and were then used. Thereafter, 10 μl each of the PDB suspension spore solution containing the peptide to be tested was dropped on the front side and the back side of the leaf of tomato (variety name: “Ponte Rosa”). In this condition, incubation was carried out at 25° C. for 2 days. Thereafter, the front and back sides of the leaf were observed by visual inspection.

For assay [5], the system named is Colletotrichum destructivum. Briefly: Colletotrichum destructivum leaf inoculation test (Chinese cabbage leaf). It counts as in vivo. The note with it: 25° C., 4 days, lesions by visual inspection. The source says: In the present example, a suspension comprising Colletotrichum destructivum and a peptide to be tested was dropped on a plant leaf, and lesions were then observed by visual inspection to evaluate the antimicrobial activity of the tested peptide. First, the pores of Colletotrichum destructivum were suspended in water to result in a spore concentration of 5×10^5 spores/ml, so as to prepare a water suspension of spores. Subsequently, peptides to be tested (TsORF18 (full length), TsORF18-40 a.a., and TsORF18-2) were each added to the water suspension of spores, so that the final concentration of the peptides to be tested became 0 μM, 1 μM, 10 μM or 100 μM. Thereafter, 10 μl each of the water suspension of spores containing the peptide to be tested was dropped on the front side and the back side of the leaf of Chinese cabbage (variety name: “Kigokoro 85”). In this condition, incubation was carried out at 25° C. for 4 days. Thereafter, the front and back sides of the leaf were observed by visual inspection.

Assay [6] deals with plant pathogenic filamentous fungi. The class given is cell-based. The note with it: summary of Table 3.

Several values for one entry are separate records, joined by “and”; a condition that tells them apart may be missing. Equal values may be shown once. Read-outs that look alike come from different tables or passages of the source.

Regarding “RKFWRIWK (listed as Solanum lycopersicum) [TsORF18-2-8aa-12]”, the entries for the “Plate antimicrobial activity test Botrytis cinerea (level)” value with Botrytis cinerea [1] (peptide 1 μM), in the assay with Botrytis cinerea [1] (peptide 10 μM) and in the assay on Botrytis cinerea [1] (peptide 100 μM) were 0, 1 and 3, respectively. Besides, the results for the “Plate antimicrobial activity test Colletotrichum destructivum (level)” value in assay [2] (peptide 1 μM), in assay [2] (peptide 10 μM) and in assay [2] (peptide 100 μM) were 0, 0 and 3, respectively. The “Plate antimicrobial activity test Collectotrichum orbiculare (level)” value in assay [3] (peptide 1 μM) stood at 0; in assay [3] (peptide 10 μM), 0; in assay [3] (peptide 100 μM) it was 3. Also, the “Plate antimicrobial activity test Fusarium oxysporum (level)” value in the assay with Fusarium oxysporum was 3 and 2 and 0. The “Plate antimicrobial activity test Pyricularia oryzae (level)” value in the assay on Pyricularia oryzae (peptide 1 μM), in the assay on Pyricularia oryzae (peptide 10 μM) and with Pyricularia oryzae (peptide 100 μM) was 0 in each case. The “Leaf inoculation test Tomato/Botrytis cinerea” value in the assay on Botrytis cinerea [4] is “∘”. Moreover, the “Leaf inoculation test Chinese cabbage/Colletotrichum destructivum” value in assay [5] (peptide 1 μM) is “Δ”; in assay [5] (peptide 10 μM), “∘”; in assay [5] (peptide 100 μM), “∘”. In addition, the “germination inhibitory activity against plant pathogenic filamentous fungi (in words)” value (“germination inhibitory activity” below) in assay [6] is recorded as “extremely excellent germination inhibitory activity”.

Take “TRKFWRIW (listed as Solanum lycopersicum) [TsORF18-2-8aa-11]”: the “Plate antimicrobial activity test Botrytis cinerea (level)” value in the assay with Botrytis cinerea [1] (peptide 1 μM) was 0; with Botrytis cinerea [1] (peptide 10 μM), 0; in the assay on Botrytis cinerea [1] (peptide 100 μM) it was 3. Also, the “Plate antimicrobial activity test Colletotrichum destructivum (level)” value in assay [2] (peptide 1 μM) worked out at 0; in assay [2] (peptide 10 μM), 0; in assay [2] (peptide 100 μM) it was 3. Also, the “Plate antimicrobial activity test Collectotrichum orbiculare (level)” value in assay [3] (peptide 1 μM) worked out at 0; in assay [3] (peptide 10 μM), 0; in assay [3] (peptide 100 μM), 3. Besides, in the assay with Fusarium oxysporum, the “Plate antimicrobial activity test Fusarium oxysporum (level)” value is 3 and 0. Moreover, the “Plate antimicrobial activity test Pyricularia oryzae (level)” value in the assay with Pyricularia oryzae (peptide 1 μM), in the assay on Pyricularia oryzae (peptide 10 μM) and in the assay on Pyricularia oryzae (peptide 100 μM) was 0 in each case. Besides, the “Leaf inoculation test Tomato/Botrytis cinerea” value with Botrytis cinerea [4] is recorded as “∘”. The “Leaf inoculation test Chinese cabbage/Colletotrichum destructivum” value in assay [5] (peptide 10 μM) and in assay [5] (peptide 100 μM) was “∘” in each case. Besides, in assay [6], the “germination inhibitory activity” value is “extremely excellent germination inhibitory activity”.

In the case of “RTRKFWRI (listed as Solanum lycopersicum) [TsORF18-2-8aa-10]”, the “Plate antimicrobial activity test Botrytis cinerea (level)” value in the assay with Botrytis cinerea [1] (peptide 1 μM) is reported as 0; in the assay on Botrytis cinerea [1] (peptide 10 μM), 0; in the assay on Botrytis cinerea [1] (peptide 100 μM), 3. The “Plate antimicrobial activity test Colletotrichum destructivum (level)” value in assay [2] (peptide 1 μM) worked out at 0; in assay [2] (peptide 10 μM), 0; in assay [2] (peptide 100 μM), 3. The “Plate antimicrobial activity test Collectotrichum orbiculare (level)” value came to 0 in assay [3] (peptide 1 μM), 0 in assay [3] (peptide 10 μM) and 3 in assay [3] (peptide 100 μM). Besides, the “Plate antimicrobial activity test Fusarium oxysporum (level)” value in the assay with Fusarium oxysporum was 3 and 1 and 0. In addition, the “Plate antimicrobial activity test Pyricularia oryzae (level)” value is 0 in the assay on Pyricularia oryzae (peptide 1 μM), 0 in the assay on Pyricularia oryzae (peptide 10 μM) and 1 in the assay with Pyricularia oryzae (peptide 100 μM). Moreover, the “Leaf inoculation test Chinese cabbage/Colletotrichum destructivum” value in assay [5] (peptide 10 μM) and in assay [5] (peptide 100 μM) was “∘” each time. Also, the “germination inhibitory activity” value in assay [6] is “extremely excellent germination inhibitory activity”.

Regarding “KFWRIWKG (listed as Solanum lycopersicum) [TsORF18-2-8aa-13]”, the “Plate antimicrobial activity test Botrytis cinerea (level)” value in the assay with Botrytis cinerea [1] (peptide 1 μM) was found to be 0; in the assay on Botrytis cinerea [1] (peptide 10 μM) it was 0; in the assay on Botrytis cinerea [1] (peptide 100 μM), 3. Besides, the “Plate antimicrobial activity test Colletotrichum destructivum (level)” value in assay [2] (peptide 1 μM) is on record as 0; in assay [2] (peptide 10 μM), 0; in assay [2] (peptide 100 μM) it was 3. Also, the “Plate antimicrobial activity test Collectotrichum orbiculare (level)” value in assay [3] (peptide 1 μM) came out at 0; in assay [3] (peptide 10 μM), 0; in assay [3] (peptide 100 μM), 3. Moreover, in the assay on Fusarium oxysporum, the “Plate antimicrobial activity test Fusarium oxysporum (level)” value was 3 and 2 and 0. In addition, the “Plate antimicrobial activity test Pyricularia oryzae (level)” value with Pyricularia oryzae (peptide 1 μM), in the assay on Pyricularia oryzae (peptide 10 μM) and in the assay on Pyricularia oryzae (peptide 100 μM) was 0 throughout. Further, in the assay on Botrytis cinerea [4], the “Leaf inoculation test Tomato/Botrytis cinerea” value was “∘”. Besides, the “Leaf inoculation test Chinese cabbage/Colletotrichum destructivum” value in assay [5] (peptide 10 μM) and in assay [5] (peptide 100 μM) was “∘” each time. Moreover, the “germination inhibitory activity” value in assay [6] is recorded as “extremely excellent germination inhibitory activity”.

“KFWRI (listed as Solanum lycopersicum) [TsORF18-2-5aa-13]”: the “Plate antimicrobial activity test Botrytis cinerea (level)” value in the assay with Botrytis cinerea [1] (peptide 1 μM) was 0; in the assay on Botrytis cinerea [1] (peptide 10 μM), 0; in the assay on Botrytis cinerea [1] (peptide 100 μM) it was 3. Besides, the “Plate antimicrobial activity test Colletotrichum destructivum (level)” value was found to be 0 in assay [2] (peptide 1 μM), 0 in assay [2] (peptide 10 μM) and 3 in assay [2] (peptide 100 μM). Moreover, the “Plate antimicrobial activity test Collectotrichum orbiculare (level)” value in assay [3] (peptide 1 μM) was 0; in assay [3] (peptide 10 μM), 0; in assay [3] (peptide 100 μM), 3. Further, the “Plate antimicrobial activity test Fusarium oxysporum (level)” value in the assay on Fusarium oxysporum is 3 and 0. Further, the figures for the “Plate antimicrobial activity test Pyricularia oryzae (level)” value in the assay on Pyricularia oryzae (peptide 1 μM), with Pyricularia oryzae (peptide 10 μM) and with Pyricularia oryzae (peptide 100 μM) were 0, 0 and 1, respectively. For the same substance, the “Leaf inoculation test Chinese cabbage/Colletotrichum destructivum” value in assay [5] (peptide 10 μM) and in assay [5] (peptide 100 μM) was “∘” in each case. Moreover, the “germination inhibitory activity” value in assay [6] is given as “extremely excellent germination inhibitory activity”.

On to “FWRIWKGK (listed as Solanum lycopersicum) [TsORF18-2-8aa-14]”, for which the entries for the “Plate antimicrobial activity test Botrytis cinerea (level)” value in the assay with Botrytis cinerea [1] (peptide 1 μM), in the assay with Botrytis cinerea [1] (peptide 10 μM) and in the assay with Botrytis cinerea [1] (peptide 100 μM) were 0, 0 and 3, respectively. The entries for the “Plate antimicrobial activity test Colletotrichum destructivum (level)” value in assay [2] (peptide 1 μM), in assay [2] (peptide 10 μM) and in assay [2] (peptide 100 μM) were 0, 0 and 3, respectively. Further, the “Plate antimicrobial activity test Collectotrichum orbiculare (level)” value in assay [3] (peptide 1 μM) is listed as 0; in assay [3] (peptide 10 μM), 0; in assay [3] (peptide 100 μM), 3. Besides, the “Plate antimicrobial activity test Fusarium oxysporum (level)” value with Fusarium oxysporum was 3 and 0. Besides, the “Plate antimicrobial activity test Pyricularia oryzae (level)” value with Pyricularia oryzae (peptide 1 μM), in the assay with Pyricularia oryzae (peptide 10 μM) and in the assay with Pyricularia oryzae (peptide 100 μM) was 0 throughout. Further, the “Leaf inoculation test Chinese cabbage/Colletotrichum destructivum” value in assay [5] (peptide 1 μM) is “Δ”; in assay [5] (peptide 10 μM) it was “∘”; in assay [5] (peptide 100 μM), “∘”. Besides, the “germination inhibitory activity” value in assay [6] is given as “extremely excellent germination inhibitory activity”.
